pKi: −log10 of the molar value.
How the values were obtained:
[1] = system: human large intestine cancer cell line (HCT-116); assay: Human large intestine cancer (HCT-116) cell growth inhibition test; type: cell-based; conditions: HCT-116, 72 h, culture for 3 days, sulforhodamine B, read-out: GI50 value, HCT-116 cell growth inhibition
In short: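 HCT-116 cells were seeded at 0.5 to 2.0×10^3 cells/well in McCoy's 5A with 10% FBS and dosed with compound at 0.1% final DMSO after overnight culture. Growth was measured by sulforhodamine B absorbance after 3 days. GI50 was calculated from the inhibition rate at each concentration.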

CDK7 = target: T1, CDK7 (Homo sapiens, UniProt P50613); assay: CDK7 enzyme inhibition test; type: biochemical; conditions: [γ-33P]ATP, MBP substrate, 60 min preincubation at 25°C; Ki=IC50/(1+S/Km); read-out: Ki value of CDK7 inhibitory activity
T1 construct: purchased Carna Biosciences, Inc. 04-108
In short: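 Commercial human CDK7 with myelin basic protein substrate in HEPES pH 7.4 buffer with DTT, Triton X-100, MgCl2; compound preincubated 60 min at 25° C, then reaction run 20 min at 30° C after adding [γ-^33P]ATP (500 μM solution). TCA-precipitated ^33P-MBP counted by scintillation; IC50 converted to Ki via Ki=IC50/(1+S/Km).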

PLK1 = target: T2, PLK1 (Homo sapiens, UniProt P53350); assay: PLK1 enzyme (polo-like kinase) inhibition test; type: biochemical; conditions: [γ-33P]ATP, casein substrate; Ki=IC50/(1+S/Km); read-out: Ki value of PLK1 inhibitory activity
T2 construct: purchased Carna Biosciences, Inc. 05-157
Procedure: The preparation of a buffer solution was performed by mixing a 3-morpholinopropanesulfonic acid buffer solution (MOPS buffer solution) (pH 7.0), dithiothreitol (DTT), and magnesium acetate (Mg(CH3COO)2). A 1 mM [γ-^33P]ATP solution was used by diluting a 10 mM ATP solution and a commercially available [γ-^33P]ATP solution (manufactured by Perkin Elmer, Inc., Code No. NEG-302H) with the buffer solution. A PLK1 solution was used by diluting commercially available PLK1 (manufactured by Carna Biosciences, Inc., Catalog No. 05-157) with the buffer solution. A substrate solution was used by diluting casein with the buffer solution. As for the preparation of a reaction solution, the buffer solution, the 500 μM [γ-^33P]ATP solution, the PLK1 solution, and the substrate solution were mixed at 4° C. to obtain a reaction solution.
(§1) PLK1 enzyme reaction was performed by adding 5 μL of a test compound solution prepared with 10% DMSO/90% injectable distilled water, and 45 μL of the reaction solution in a 1.5 mL microtube at 4° C. and reacting in the microtube at 30° C. for 20 minutes in a water bath incubator. After the reaction, a 10% aqueous trichloroacetic acid (TCA) solution was added to each microtube while cooled to 4° C., and mixed in a vortex mixer to terminate the reaction. The resultant was left standing at 4° C. for 10 minutes and then centrifuged, and the supernatant was discarded. Next, a 2% aqueous trichloroacetic acid (TCA) solution was added thereto, mixed in a vortex mixer, and then centrifuged, and the supernatant was discarded. This washing operation was performed twice. After the washing, precipitates were dissolved in a 1 N aqueous sodium hydroxide (NaOH) solution, and the energy quantity (radioactivity) of the reaction product was measured with a liquid scintillation counter.
The calculation of the inhibitory activity of the test compound against PLK1 was performed as a test compound concentration inhibiting 50% of the amount of ^33P bound to casein (IC50 value) by using EXSUS (version 8.1.0, manufactured by CAC Exicare Corp.).
(§2) The calculation of a Ki value was performed according to the following calculation expression wherein S represents the concentration of ATP contained in the reaction solution, and Km represents a Michaelis-Menten constant: Ki=IC50/(1+S/Km)

CDK2 = target: T3, CDK2 (Homo sapiens, UniProt P24941); assay: CDK2 enzyme inhibition test; type: biochemical; conditions: [γ-33P]ATP, MBP substrate; Ki=IC50/(1+S/Km); read-out: Ki value of CDK2 inhibitory activity
T3 construct: purchased Invitrogen Corp. PV3267
Procedure: The preparation of a buffer solution was performed by mixing a N-2-hydroxyethylpiperazine-N′-2-ethanesulfonic acid buffer solution (HEPES buffer solution) (pH 7.4), dithiothreitol (DTT), Triton X-100, and magnesium chloride (MgCl2). A 500 μM [γ-^33P]ATP solution was used by diluting a 10 mM ATP solution and a commercially available [γ-^33P]ATP solution (manufactured by Perkin Elmer, Inc., Code No. NEG-302H) with the buffer solution. A CDK2 solution was used by diluting commercially available CDK2 (manufactured by Invitrogen Corp., Catalog No. PV3267) with the buffer solution. A substrate solution was used by diluting myelin basic protein (MBP) with the buffer solution. As for the preparation of a reaction solution, the buffer solution, the 500 μM [γ-^33P]ATP solution, the CDK2 solution, and the substrate solution were mixed at 4° C. to obtain a reaction solution.
as §1, with “CDK2 enzyme reaction” for “PLK1 enzyme reaction”, “mixed in vortex mixer,” for “mixed in a vortex mixer,”
The calculation of the inhibitory activity of the test compound against CDK2 was performed as a test compound concentration inhibiting 50% of the amount of ^33P bound to MBP (IC50 value) by using EXSUS (version 8.1.0, manufactured by CAC Exicare Corp.).
as §2

T1 sequence (P50613 whole entry): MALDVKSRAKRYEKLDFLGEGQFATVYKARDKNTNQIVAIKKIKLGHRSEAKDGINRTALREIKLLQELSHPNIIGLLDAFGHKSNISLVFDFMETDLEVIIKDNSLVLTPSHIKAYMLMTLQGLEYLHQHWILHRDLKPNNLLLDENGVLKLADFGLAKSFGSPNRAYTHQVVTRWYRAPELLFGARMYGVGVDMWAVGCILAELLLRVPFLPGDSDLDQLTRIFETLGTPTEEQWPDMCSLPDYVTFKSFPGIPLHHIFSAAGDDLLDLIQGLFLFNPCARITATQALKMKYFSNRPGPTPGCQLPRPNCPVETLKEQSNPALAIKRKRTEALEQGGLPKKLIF
T1 sequence (P51946 whole entry partner): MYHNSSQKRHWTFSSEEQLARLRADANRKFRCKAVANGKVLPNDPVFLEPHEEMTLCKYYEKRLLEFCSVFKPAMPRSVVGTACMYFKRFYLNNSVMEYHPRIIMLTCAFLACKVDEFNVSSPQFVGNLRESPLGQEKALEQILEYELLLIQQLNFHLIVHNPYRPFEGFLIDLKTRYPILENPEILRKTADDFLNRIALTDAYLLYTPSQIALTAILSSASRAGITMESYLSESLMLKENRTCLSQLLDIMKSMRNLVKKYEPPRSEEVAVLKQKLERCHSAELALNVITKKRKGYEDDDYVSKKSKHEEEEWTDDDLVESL
T1 sequence (P51948 whole entry partner): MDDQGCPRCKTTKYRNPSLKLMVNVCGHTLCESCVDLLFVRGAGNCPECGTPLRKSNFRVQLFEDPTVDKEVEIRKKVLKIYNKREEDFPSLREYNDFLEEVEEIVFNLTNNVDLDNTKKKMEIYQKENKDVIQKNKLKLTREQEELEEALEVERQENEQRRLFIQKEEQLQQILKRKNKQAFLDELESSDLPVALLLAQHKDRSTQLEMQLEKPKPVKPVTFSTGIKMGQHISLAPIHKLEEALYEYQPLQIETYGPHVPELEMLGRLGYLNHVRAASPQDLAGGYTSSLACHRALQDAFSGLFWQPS
T2 sequence (P53350 whole entry): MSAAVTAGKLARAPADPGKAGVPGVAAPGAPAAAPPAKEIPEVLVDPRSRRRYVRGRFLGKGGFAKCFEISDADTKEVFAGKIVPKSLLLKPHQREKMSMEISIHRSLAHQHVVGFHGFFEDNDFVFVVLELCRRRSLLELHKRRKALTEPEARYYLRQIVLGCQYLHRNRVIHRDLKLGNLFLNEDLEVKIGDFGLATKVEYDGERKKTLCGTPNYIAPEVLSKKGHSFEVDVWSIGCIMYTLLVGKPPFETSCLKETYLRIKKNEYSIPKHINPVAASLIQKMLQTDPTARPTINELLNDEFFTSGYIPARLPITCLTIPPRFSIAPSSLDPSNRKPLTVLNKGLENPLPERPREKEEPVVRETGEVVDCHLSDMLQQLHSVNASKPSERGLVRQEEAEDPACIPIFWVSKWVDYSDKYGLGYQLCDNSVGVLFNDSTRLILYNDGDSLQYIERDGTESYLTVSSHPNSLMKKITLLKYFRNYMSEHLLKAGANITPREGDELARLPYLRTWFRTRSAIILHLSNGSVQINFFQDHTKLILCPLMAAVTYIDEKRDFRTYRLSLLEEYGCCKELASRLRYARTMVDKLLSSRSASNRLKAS

Compound `CC(F)(F)c1ccccc1NC(=O)N1Cc2c(NC(=O)C3([Si](C)(C)C)CCC3)n[nH]c2C1(C)C` [IV-45, N-[2-(1,1-Difluoroethyl)phenyl]-6,6-dimethyl-3-[1-(trimethylsilyl)cyclobutanecarboxamido]-4,6-dihydropyrrolo[3,4-c]pyrazole-5(1H)-carboxamide] has a GI50 [1] of at most 100 nM, a pKi (CDK7) of at least 7.30 and a pKi (PLK1) of at most 5.30. For the same compound, the pKi (CDK2) was at most 6.00.
Work on `CC1(C)c2[nH]nc(NC(=O)C3([Si](C)(C)C)CCC3)c2CN1C(=O)Nc1ccccc1OC(F)F` [IV-87, N-[2-(Difluoromethoxy)phenyl]-6,6-dimethyl-3-[1-(trimethylsilyl)cyclobutanecarboxamido]-4,6-dihydropyrrolo[3,4-c]pyrazole-5(1H)-carboxamide] yielded a GI50 [1] of at most 100 nM, a pKi (CDK7) of at least 7.30 and a pKi (PLK1) of at most 5.30. For the same compound, the pKi (CDK2) was at most 6.00.
`CC1(C)c2[nH]nc(NC(=O)C3([Si](C)(C)C)CCC3)c2CN1C(=O)Nc1c(F)cccc1F` [IV-105, N-(2,6-Difluorophenyl)-6,6-dimethyl-3-[1-(trimethylsilyl)cyclobutanecarboxamido]-4,6-dihydropyrrolo[3,4-c]pyrazole-5(1H)-carboxamide] was tested, and the GI50 [1] was at most 100 nM, the pKi (CDK7) was at least 7.30 and the pKi (PLK1) was at most 5.30. For the same compound, the pKi (CDK2) was at most 6.00.
`[2H]C([2H])([2H])Oc1cccc(F)c1NC(=O)N1Cc2c(NC(=O)C3([Si](C)(C)C)CCC3)n[nH]c2C1(C)C` [IV-177, N-[2-Fluoro-6-(methoxy-d3)phenyl]-6,6-dimethyl-3-[1-(trimethylsilyl)cyclobutanecarboxamido]-4,6-dihydropyrrolo[3,4-c]pyrazole-5(1H)-carboxamide] showed a GI50 [1] of at most 100 nM, a pKi (CDK7) of at least 7.30 and a pKi (PLK1) of at most 5.30. The pKi (CDK2) was at most 6.00.
`CC1(C)c2[nH]nc(NC(=O)C3([Si](C)(C)C)CCC3)c2CN1C(=O)Nc1c(F)cccc1C#N` [IV-185, N-(2-Cyano-6-fluorophenyl)-6,6-dimethyl-3-[1-(trimethylsilyl)cyclobutanecarboxamido]-4,6-dihydropyrrolo[3,4-c]pyrazole-5 (1H)-carboxamide] gave a GI50 [1] of at most 100 nM, a pKi (CDK7) of at least 7.30 and a pKi (PLK1) of at most 5.30. For the same compound, the pKi (CDK2) was at most 6.00.
In the case of `CC1(C)c2[nH]nc(NC(=O)C3([Si](C)(C)C)CCC3)c2CN1C(=O)Nc1c(Cl)cccc1Br` [IV-207, N-(2-Bromo-6-chlorophenyl)-6,6-dimethyl-3-[1-(trimethylsilyl)cyclobutanecarboxamido]-4,6-dihydropyrrolo[3,4-c]pyrazole-5 (1H)-carboxamide], the GI50 [1] was at most 100 nM, the pKi (CDK7) was at least 7.30 and the pKi (PLK1) was at most 5.30. For the same compound, the pKi (CDK2) was at most 6.00.
`CC1(C)c2[nH]nc(NC(=O)C3([Si](C)(C)C)CCC3)c2CN1C(=O)Nc1c(Cl)cccc1C1CC1` [IV-231, N-(2-Chloro-6-cyclopropylphenyl)-6,6-dimethyl-3-[1-(trimethylsilyl)cyclobutanecarboxamido]-4,6-dihydropyrrolo[3,4-c]pyrazole-5(1H)-carboxamide] gave a GI50 [1] of at most 100 nM, a pKi (CDK7) of at least 7.30 and a pKi (PLK1) of at most 5.30. For the same compound, the pKi (CDK2) was at most 6.00.
`CC1(C)c2[nH]nc(NC(=O)C3([Si](C)(C)C)CCC3)c2CN1C(=O)Nc1c(Cl)cccc1C(F)(F)F` [IV-239, N-[2-Chloro-6-(trifluoromethyl)phenyl]-6,6-dimethyl-3-[1-(trimethylsilyl)cyclobutanecarboxamido]-4,6-dihydropyrrolo[3,4-c]pyrazole-5(1H)-carboxamide] showed a GI50 [1] of at most 100 nM, a pKi (CDK7) of at least 7.30 and a pKi (PLK1) of at most 5.30. The pKi (CDK2) was at most 6.00.
`Cc1c(F)cccc1NC(=O)N1Cc2c(NC(=O)C3([Si](C)(C)C)CCC3)n[nH]c2C1(C)C` [IV-357, N-(3-Fluoro-2-methylphenyl)-6,6-dimethyl-3-[1-(trimethylsilyl)cyclobutanecarboxamido]-4,6-dihydropyrrolo[3,4-c]pyrazole-5 (1H)-carboxamide] was tested, and the GI50 [1] was at most 100 nM, the pKi (CDK7) was at least 7.30 and the pKi (PLK1) was at most 5.30. The pKi (CDK2) was at most 6.00.
Work on `Cc1ccc(Cl)cc1NC(=O)N1Cc2c(NC(=O)C3([Si](C)(C)C)CCC3)n[nH]c2C1(C)C` [IV-367, N-(5-Chloro-2-methylphenyl)-6,6-dimethyl-3-[1-(trimethylsilyl)cyclobutanecarboxamido]-4,6-dihydropyrrolo[3,4-c]pyrazole-5 (1H)-carboxamide] yielded a GI50 [1] of at most 100 nM, a pKi (CDK7) of at least 7.30 and a pKi (PLK1) of at most 5.30. For the same compound, the pKi (CDK2) was at most 6.00.
Compound `Cc1ccc(NC(=O)N2Cc3c(NC(=O)C4([Si](C)(C)C)CCC4)n[nH]c3C2(C)C)c(C)c1` [IV-377, N-(2,4-Dimethylphenyl)-6,6-dimethyl-3-[1-(trimethylsilyl)cyclobutanecarboxamido]-4,6-dihydropyrrolo[3,4-c]pyrazole-5(1H)-carboxamide] has a GI50 [1] of at most 100 nM, a pKi (CDK7) of at least 7.30 and a pKi (PLK1) of at most 5.30. It also gave a pKi (CDK2) of at most 6.00.
With `Cc1cccc(C)c1NC(=O)N1Cc2c(NC(=O)C3([Si](C)(C)C)CCC3)n[nH]c2C1(C)C` [IV-381, N-(2,6-Dimethylphenyl)-6,6-dimethyl-3-[1-(trimethylsilyl)cyclobutanecarboxamido]-4,6-dihydropyrrolo[3,4-c]pyrazole-5(1H)-carboxamide] the GI50 [1] was at most 100 nM, the pKi (CDK7) was at least 7.30 and the pKi (PLK1) was at most 5.30. The pKi (CDK2) was at most 6.00.
Work on `Cc1ccc(F)c(NC(=O)N2Cc3c(NC(=O)C4([Si](C)(C)C)CCC4)n[nH]c3C2(C)C)c1F` [IV-609, N-(2,6-Difluoro-3-methylphenyl)-6,6-dimethyl-3-[1-(trimethylsilyl)cyclobutanecarboxamido]-4,6-dihydropyrrolo[3,4-c]pyrazole-5(1H)-carboxamide] yielded a GI50 [1] of at most 100 nM, a pKi (CDK7) of at least 7.30 and a pKi (PLK1) of at most 5.30. The pKi (CDK2) was at most 6.00.
`COc1cc(F)c(NC(=O)N2Cc3c(NC(=O)C4([Si](C)(C)C)CCC4)n[nH]c3C2(C)C)c(F)c1` [IV-615, N-(2,6-Difluoro-4-methoxyphenyl)-6,6-dimethyl-3-[1-(trimethylsilyl)cyclobutanecarboxamido]-4,6-dihydropyrrolo[3,4-c]pyrazole-5(1H)-carboxamide] showed a GI50 [1] of at most 100 nM, a pKi (CDK7) of at least 7.30 and a pKi (PLK1) of at most 5.30. For the same compound, the pKi (CDK2) was at most 6.00.

Reference: patent US10894798B2, “Substituted dihydropyrrolopyrazole derivative” (UBE INDUSTRIES, LTD., priority 2015, dated 2021)
